Earlier results in patent publication US20090203732A1, “Thiazolones for Use as P13 Kinase Inhibitors” (priority 2006, published 2009).
Read-outs that look alike come from different tables or passages of the source.

What was measured:
[1] = target: CK2 protein kinase (Homo sapiens, UniProt P68400)
[2] = test system: Class I PI3-kinases

Sequence of CK2 protein kinase (P68400 whole entry): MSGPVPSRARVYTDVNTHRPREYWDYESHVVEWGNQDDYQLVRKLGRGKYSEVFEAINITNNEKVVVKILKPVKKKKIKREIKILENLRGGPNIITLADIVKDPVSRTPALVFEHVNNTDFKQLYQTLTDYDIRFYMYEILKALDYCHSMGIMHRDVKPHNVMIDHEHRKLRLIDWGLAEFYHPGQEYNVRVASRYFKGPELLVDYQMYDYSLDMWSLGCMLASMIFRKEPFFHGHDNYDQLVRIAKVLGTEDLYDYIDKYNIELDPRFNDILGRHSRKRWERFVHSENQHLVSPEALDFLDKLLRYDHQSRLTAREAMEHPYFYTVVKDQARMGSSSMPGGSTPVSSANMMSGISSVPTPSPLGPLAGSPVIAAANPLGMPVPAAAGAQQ

In the case of `O=c1cc(N2CCOCC2)oc2c(-c3ccccc3)cccc12` [LY294002], the IC50 [1] is given as 5 to 10 µM and the IC50 ([2]; each of the Class I PI3-kinases, Fruman et al. 1998, read-out: IC50 against each of these PI3-kinases) is given as 15 to 20 µM.

For `COC[C@H]1OC(=O)c2coc3c2[C@@]1(C)C1=C(C3=O)[C@@H]2CCC(=O)[C@@]2(C)C[C@H]1OC(C)=O` [wortmannin], the IC50 ([2]; each of the four members of Class I PI3-kinases, read-out: IC50 against each of the various Class I PI3-kinases) is given as 0.001 to 0.01 µM.
